Measurements published in US20110053916A1 (Vertex Pharmaceuticals Incorporated, priority 2009, published 2011).
Where a name gives a salt, the structure may show the parent alone. Read-outs that look alike come from different tables or passages of the source.

How the values were obtained:
PknB = biological target: T1, PknB (Mycobacterium tuberculosis, UniProt P9WI81); experiment: biochemical; set-up: species or system M. tuberculosis; details: for Ki: read-out: Ki Values
T1 construct: made in house
T1 sequence (P9WI81 whole entry): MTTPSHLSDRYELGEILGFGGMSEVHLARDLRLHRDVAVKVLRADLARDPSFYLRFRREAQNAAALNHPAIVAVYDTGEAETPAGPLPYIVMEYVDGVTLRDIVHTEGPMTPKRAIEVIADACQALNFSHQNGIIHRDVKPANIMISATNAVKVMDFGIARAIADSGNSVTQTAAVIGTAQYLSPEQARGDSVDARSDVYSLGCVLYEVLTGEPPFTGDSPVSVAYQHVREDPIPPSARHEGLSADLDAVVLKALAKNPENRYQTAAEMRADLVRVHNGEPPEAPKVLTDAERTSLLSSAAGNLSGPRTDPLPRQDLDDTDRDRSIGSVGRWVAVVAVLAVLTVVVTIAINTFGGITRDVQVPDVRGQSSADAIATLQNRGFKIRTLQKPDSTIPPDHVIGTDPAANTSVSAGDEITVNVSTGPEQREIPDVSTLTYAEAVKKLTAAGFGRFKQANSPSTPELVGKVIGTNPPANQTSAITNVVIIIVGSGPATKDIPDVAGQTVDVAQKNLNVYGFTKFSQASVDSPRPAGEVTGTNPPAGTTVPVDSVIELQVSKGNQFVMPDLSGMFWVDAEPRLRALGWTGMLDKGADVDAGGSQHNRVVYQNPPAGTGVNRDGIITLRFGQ

[1] = test system: Mycobacterium tuberculosis H37Ra; experiment: Mycobacterium tuberculosis growth inhibition assay (microtiter dilution, resazurin reduction); format: cell-based; details: 7H9 broth, 9 days + 24 h resazurin, lowest concentration inhibiting resazurin reduction by >70%, several symbols in a cell = repeat determinations
Outline: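 Resazurin-based microtiter dilution MIC: compounds in 7- or 11-step two-fold series with ~1×10^6 cells/mL H37Ra in 7H9/10% ADC, 9 days at 37 °C, then 24 h with dye. MIC is the lowest concentration giving >70% inhibition of resazurin reduction relative to DMSO controls, by 492/595 nm fluorescence.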

[2] = 3 nM PknB, 6 uM GarA, 3 μM ATP, 30 min, competitive tight-binding fit, several symbols in a cell = repeat determinations

| Structure (SMILES) | Ki (PknB; [2]) [µM] | MIC values [1] | Ki Values (PknB; [2]) | Ki Values (PknB) |
| --- | --- | --- | --- | --- |
| C#Cc1cnc(-c2ccc(S(N)(=O)=O)s2)nc1Nc1cc(C2CC2)n[nH]1 [Compound 114, 5-(4-(3-Cyclopropyl-1H-pyrazol-5-ylamino)-5-ethynylpyrimidin-2-yl)thiophene-2-sulfonamide] | 0.001 to 0.01 | A+, A | – | – |
| OCc1ccc(-c2ncc(F)c(Nc3cc(C4CC4)[nH]n3)n2)s1 [Compound 26, (5-(4-(5-cyclopropyl-1H-pyrazol-3-ylamino)-5-fluoropyrimidin-2-yl)thiophen-2-yl)methanol] | 0.01 to 0.05 | B+ | – | – |
| Cc1nc(-c2ccc(S(N)(=O)=O)s2)nc(Nc2cc(C3CC3)[nH]n2)c1Cl [Compound 266, 5-[5-chloro-4-[(5-cyclopropyl-1H-pyrazol-3-yl)amino]-6-methyl-pyrimidin-2-yl]thiophene-2-sulfonamide] | 0.001 to 0.01 | A+, A, A, C | – | – |
| C#Cc1cnc(-c2ccc([C@H](O)C(C)C)s2)nc1Nc1cc(C2CC2)n[nH]1 [Compound 214, 1-[5-[4-[(5-cyclopropyl-2H-pyrazol-3-yl)amino]-5-ethynyl-pyrimidin-2-yl]-2-thienyl]-2-methyl-propan-1-ol] | – | B++ | A**, A**, A* | – |
| Fc1cnc(-c2cccs2)nc1Nc1cc(C2CC2)[nH]n1 [Compound 41, N-(5-cyclopropyl-1H-pyrazol-3-yl)-5-fluoro-2-(thiophen-2-yl)pyrimidin-4-amine] | 0.01 to 0.05 | B+ | – | – |
| C#Cc1cnc(-c2ccc(CN)s2)nc1Nc1cc(C2CC2)[nH]n1 [Compound 167, 2-(5-(aminomethyl)thiophen-2-yl)-N-(5-cyclopropyl-1H-pyrazol-3-yl)-5-ethynylpyrimidin-4-amine hydrochloride] | – | B++ | – | A, A, A, B** |
| CC(=O)OCCc1cnc(-c2ccc(S(N)(=O)=O)s2)nc1Nc1cc(C2CC2)[nH]n1 [Compound 313, 2-(4-(5-cyclopropyl-1H-pyrazol-3-ylamino)-2-(5-sulfamoylthiophen-2-yl)pyrimidin-5-yl)ethyl acetate] | 0.01 to 0.05 | A+ | – | – |
| Cc1cnc(-c2ccc(S(=O)(=O)NC(C)(C)C)s2)nc1Nc1cc(C2CC2)n(C)n1 [Compound 149, 5-[4-[(5-cyclopropyl-1-methyl-pyrazol-3-yl)amino]-5-methyl-pyrimidin-2-yl]-N-tert-butyl-thiophene-2-sulfonamide] | > 4 | B+ | – | – |
| CC(C)(C)NS(=O)(=O)c1ccc(-c2ncc(Cl)c(Nc3cc(C4CCN(C(=O)OCc5ccccc5)C4)n[nH]3)n2)s1 (stereo not drawn) [Compound 257, benzyl 3-[5-[[5-chloro-2-[5-(tert-butylsulfamoyl)-2-thienyl]-pyrimidin-4-yl]amino]-1H-pyrazol-3-yl]pyrrolidine-1-carboxylate] | > 4 | B++ | – | – |
| CN(CCO)S(=O)(=O)c1ccc(-c2ncc(Cl)c(Nc3cc(C4CC4)[nH]n3)n2)s1 [Compound 129, 5-(5-Chloro-4-(5-cyclopropyl-1H-pyrazol-3-ylamino)pyrimidin-2-yl)-N-(2-hydroxyethyl)-N-methylthiophene-2-sulfonamide] | 0.001 to 0.01 | B++ | – | – |
| OC/C=C/c1cnc(-c2ccccc2)nc1Nc1cc(C2CC2)[nH]n1 [Compound 53, (E)-3-(4-(5-cyclopropyl-1H-pyrazol-3-ylamino)-2-phenylpyrimidin-5-yl)prop-2-en-1-ol] | – | B+ | A, B**, B** | – |
| NC(=O)c1ncc(Cl)c(Nc2cc(C3CC3)[nH]n2)n1 [Compound 303, 5-chloro-4-[(5-cyclopropyl-1H-pyrazol-3-yl)amino]-pyrimidine-2-carboxamide] | 2 to 4 | B+ | – | – |
| COC(=O)NCc1ccc(-c2ncc(Cl)c(Nc3cc(C4CC4)n[nH]3)n2)s1 [Compound 287, methyl [[5-[5-chloro-4-[(5-cyclopropyl-2H-pyrazol-3-yl)amino]-pyrimidin-2-yl]-2-thienyl]methylamino]formate] | 0.01 to 0.05 | B+ | – | – |
| NS(=O)(=O)c1ccc(-c2nc(Nc3cc(C4CC4)n[nH]3)cc(N3CCOCC3)n2)s1 [Compound 290, 5-[4-[(5-cyclopropyl-2H-pyrazol-3-yl)amino]-6-morpholino-pyrimidin-2-yl]thiophene-2-sulfonamide] | 0.5 to 1 | B++ | – | – |
| O=S(=O)(c1ccc(-c2ncc(Cl)c(Nc3cc(C4CC4)[nH]n3)n2)s1)N1CCOCC1 [Compound 106, 5-chloro-N-(5-cyclopropyl-1H-pyrazol-3-yl)-2-(5-morpholinosulfonyl-2-thienyl)-pyrimidin-4-amine] | – | B++, C | A*, A | – |
| NC(=O)c1cc(-c2nccc(Nc3cc(C4CC4)[nH]n3)n2)ccc1Cl [Compound 51, 2-chloro-5-[4-[(5-cyclopropyl-1H-pyrazol-3-yl)amino]pyrimidin-2-yl]-benzamide] | 0.05 to 0.1 | B++ | – | – |
| N#CCc1ccc(Nc2nccc(Nc3cc(C4CC4)[nH]n3)n2)cc1 [Compound 1, 2-(4-(4-(5-cyclopropyl-1H-pyrazol-3-ylamino)pyrimidin-2-ylamino)phenyl)acetonitrile] | 0.01 to 0.05 | BM, B | – | – |
| O=C(O)c1ccc(Nc2ncc(Cl)c(Nc3cc(C4CC4)[nH]n3)n2)cc1 [Compound 77, 4-[[5-chloro-4-[(5-cyclopropyl-1H-pyrazol-3-yl)amino]-pyrimidin-2-yl]amino]benzoic acid] | 0.1 to 0.5 | B, C | – | – |
| O=[N+]([O-])c1ccc(-c2ncc(Cl)c(Nc3cc(C4CC4)[nH]n3)n2)s1 [Compound 203, 5-Chloro-N-(5-cyclopropyl-1H-pyrazol-3-yl)-2-(5-nitrothiophen-2-yl)pyrimidin-4-amine] | 0.001 to 0.01 | A+, A | – | – |
| NC(=S)c1ncc(Cl)c(Nc2cc(C3CC3)[nH]n2)n1 [Compound 305, 5-chloro-4-[(5-cyclopropyl-1H-pyrazol-3-yl)amino]-pyrimidine-2-carbothioamide] | 0.5 to 1 | A, B++ | – | – |
| COCCNS(=O)(=O)c1ccc(-c2ncc(Cl)c(Nc3cc(C4CC4)[nH]n3)n2)s1 [Compound 88, 5-(5-chloro-4-(5-cyclopropyl-1H-pyrazol-3-ylamino)pyrimidin-2-yl)-N-(2-methoxyethyl)thiophene-2-sulfonamide] | 0.01 to 0.05 | B+, C | – | – |
| C#Cc1cnc(-c2ccc([C@@H](C)O)s2)nc1Nc1cc(C2CC2)n[nH]1 [Compound 212, (R)-1-(5-(4-(3-cyclopropyl-1H-pyrazol-5-ylamino)-5-ethynylpyrimidin-2-yl)thiophen-2-yl)ethanol] | – | A, B++ | A**, A**, A* | – |
| O=S(=O)(c1ccc(-c2ncc(Cl)c(Nc3cc(C4CC4)[nH]n3)n2)s1)N1CCCC1 [Compound 98, 5-chloro-N-(5-cyclopropyl-1H-pyrazol-3-yl)-2-(5-pyrrolidin-1-ylsulfonyl-2-thienyl)-pyrimidin-4-amine] | 0.001 to 0.01 | B, C | – | – |
| C#Cc1cnc(Nc2ccc3[nH]ncc3c2)nc1Nc1cc(C2CC2)[nH]n1 [Compound 91, N^4-(5-cyclopropyl-1H-pyrazol-3-yl)-5-ethynyl-N^2-(1H-indazol-5-yl)pyrimidine-2,4-diamine] | 0.01 to 0.05 | B+ | – | – |
